Earlier results in patent US20250075209A1, “RNAS FOR COMPLEMENT INHIBITION” (Apellis Pharmaceuticals, Inc., priority 2021, published 2025).
Bridges are numbered along the chain shown (N, C = ends). [ ]: non-standard residue; d: D form. Bpa = N[C@@H](Cc1ccc(C(=O)c2ccccc2)cc1)C(=O)O; 1Nal = N[C@@H](Cc1cccc2ccccc12)C(=O)O; Igl = N[C@H](C(=O)O)C1Cc2ccccc2C1

Test system: complement activation
Conditions: relative to compstatin amidated at the C-terminus; based on published data (WO2004/026328, WO2007044668, Mallik 2005, Katragadda 2006); cited from earlier work

| Substance | Activity over compstatin [xmore] |
| --- | --- |
| Ac-ICVWQDWGAHRCT-CONH2 (Ac-ICVWQDWGAHRCT-NH2; disulfide 2-12 (inferred)) [Ac-V4W/H9A] | 45 |
| Ac-ICVWQDWGAHRCdT-COOH [Ac-V4W/H9A/T13dT-OH] | 55 |
| Ac-ICV(Bpa)QDWGAHRCT-COOH (Ac-ICV[Bpa]QDWGAHRCT-OH; not fully specified (bridges); printed as Ac-ICV(Bpa)QDWGAHRCT-COOH; cysteine pairing not given here) [Ac-V4(Bpa)/H9A-OH] | 49 |
| Ac-ICV(2-Igl)QDWGAHRCT-COOH (Ac-ICV[Igl]QDWGAHRCT-OH; not fully specified (bridges); printed as Ac-ICV(2-Igl)QDWGAHRCT-COOH; cysteine pairing not given here) [Ac-V42Igl/H9A-OH] | 37 |
| H-GICV(6fW)QD(6fW)GAHRCTN-COOH (GICVXQDXGAHRCTN; not fully specified; 6-fluoro-Trp residues; C-terminal acid; SITE 1 N-term H - hydrogenated Glycine; SITE 5 6-fluoro-tryptophan; SITE 8 6-fluoro-tryptophan; SITE 15 C-term COOH - Asparagine carboxide) [+G/V4(6fW)/W7(6fW)H9A + N-OH] | 126 |
| Ac-ICV(1-Nal)QDWGAHRCT-COOH (Ac-ICV[1Nal]QDWGAHRCT-OH; not fully specified (bridges); printed as Ac-ICV(1-Nal)QDWGAHRCT-COOH; cysteine pairing not given here) [Ac V4(1-Nal)/H9A-OH] | 30 |
| Ac-ICV(Bpa)QDWGAHRCT-CONH2 (Ac-ICV[Bpa]QDWGAHRCT-NH2; not fully specified (bridges); printed as Ac-ICV(Bpa)QDWGAHRCT-CONH2; cysteine pairing not given here) [Ac-V4(Bpa)/H9A] | 86 |
